Reference: PubChem BioAssay (NCI)
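Growth conditions: 96-well plates. Treatment: test compound, 48 hours, 5 concentrations. Analysis: linear interpolation between bracketing concentrations; unreached endpoints set to highest concentration. GI50 is the concentration that inhibits growth by half. TGI denotes the concentration required for complete inhibition of growth.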

What was measured:
Assay in all cases: NCI tumour cell line growth inhibition, 48 h
A549 NSCLC = system: A549 NSCLC
ACHN renal = system: ACHN renal
COLO 205 colon = system: COLO 205 colon
HCT-15 colon = system: HCT-15 colon
HL-60(TB) leukemia = system: HL-60(TB) leukemia
HOP-62 NSCLC = system: HOP-62 NSCLC
IGROV1 ovarian = system: IGROV1 ovarian
OVCAR-3 ovarian = system: OVCAR-3 ovarian
RPMI-8226 leukemia = system: RPMI-8226 leukemia
SN12C renal = system: SN12C renal

Compound | TGI (A549 NSCLC) [µM] | TGI (ACHN renal) [µM] | TGI (COLO 205 colon) [µM] | TGI (HCT-15 colon) [µM] | TGI (HL-60(TB) leukemia) [µM] | TGI (HOP-62 NSCLC) [µM] | TGI (IGROV1 ovarian) [µM] | TGI (OVCAR-3 ovarian) [µM] | TGI (RPMI-8226 leukemia) [µM] | TGI (SN12C renal) [µM] | GI50 (A549 NSCLC) [nM] | GI50 (COLO 205 colon) [µM] | GI50 (HCT-15 colon) [nM] | GI50 (HL-60(TB) leukemia) [µM] | GI50 (HOP-62 NSCLC) [nM] | GI50 (IGROV1 ovarian) [nM] | GI50 (OVCAR-3 ovarian) [µM] | GI50 (RPMI-8226 leukemia) [nM] | GI50 (SN12C renal) [nM] | GI50 (ACHN renal) [nM]
COc1cc(/C=C2/Oc3c(OC)cccc3C2=O)ccc1O | > 100 | > 100 | > 100 | > 100 | > 100 | > 100 | > 100 | > 100 | > 100 | > 100 |  |  |  |  |  |  |  |  |  | 
CCOC(=O)c1csc(NC(=O)C(C)N2CCOCC2)n1 (stereo unspecified) | > 100 | > 100 | > 100 | > 100 | > 100 | > 100 | > 100 | > 100 | > 100 |  |  |  |  |  |  |  |  |  |  | 
CCN(CC)CCNc1ccc([N+](=O)[O-])c2sc3cc(Cl)ccc3c(=O)c12 | > 100 |  | > 100 | > 100 | > 100 | > 100 | 5.23 | 32.3 | 6.55 | 6.58 | 2890 | 3.93 | 2700 | 11.5 | 2700 | 2050 | 4.62 | 2320 | 2050 | 
CC(C)=CCC/C(C)=C/C=C/C(C)=C/C1C[C@@]2(C(O)O1)[C@H](CCCO)/C(=C(/C)C=O)CC[C@]2(C)O (stereo partly specified) | 25 | 25.2 | 13.4 | 31 | 29 |  | 40.6 |  |  | 30.8 |  |  |  |  |  |  |  |  |  | 
C[n+]1c(-c2ccc(/C=N/NC(=O)C(=O)N/N=C/c3ccc(-c4cn5ccccc5[n+]4C)cc3)cc2)cn2ccccc21 | > 100 | > 100 | > 100 | > 100 | > 100 | > 100 | > 100 | > 100 | > 100 | > 100 |  |  |  |  |  |  |  |  |  | 
c1cncc([O][Ge]([O]c2cccnc2)([O]c2cccnc2)[O]c2cccnc2)c1 | > 100 |  | > 100 | > 100 |  |  | > 100 | > 100 |  | > 100 | > 100000 | > 100 | > 100000 |  |  | > 100000 | > 100 |  | > 100000 | 
C/C(=N\NC(=S)N1CCOCC1)c1nc2ncccc2[nH]1 | > 100 | > 100 | > 100 | > 100 | > 100 | 96 | > 100 | > 100 | > 100 | > 100 |  |  |  |  |  |  |  |  |  | 
Cc1cc(Nc2ccc(Cl)cc2)nc(NCCCNc2ccnc3cc(Cl)ccc23)n1 |  | 3.06 | 3.31 |  |  | 3.07 |  |  |  |  |  | 1.66 |  |  | 1530 |  |  |  |  | 1630
O=C(O)/C=C/c1ccncc1 |  | > 100 | > 100 | > 100 | > 100 | 0.746 | > 100 | > 100 | > 100 | > 100 |  |  |  |  |  |  |  |  |  | 
